Measurements reported in patent US20250145665A1, “MACROCYCLIC PEPTIDES USEFUL AS MODULATORS OF TNF ALPHA” (Bristol-Myers Squibb Company, priority 2023, published 2025).
Starred links: 1 amine or outer side, 2 acyl side, 3 side chain; linkers in the order of their positions; H or OH if unused. Positions of bridges follow the written chain, without caps; N, C: chain ends. Non-standard residues stand in square brackets, D forms with d. Residues, ends and D or L forms follow the SMILES beside them. ξ: configuration not given here. *: point of attachment. Bip(4'-(3-HOOC-benzamido)) = N[C@@H](Cc1ccc(-c2ccc(NC(=O)c3cccc(C(=O)O)c3)cc2)cc1)C(=O)O; X2 = O=C(O)c1ccc(CNC(=O)c2cccc(-c3ccc(C[C@H](N[*:1])C(=O)[*:2])cc3)c2)cc1; X5 = Cn1nc(C(=O)Nc2ccc(-c3ccc(C[C@H](N[*:1])C(=O)[*:2])cc3)cc2)c2ccccc21; Bip(4'-NHBz) = N[C@@H](Cc1ccc(-c2ccc(NC(=O)c3ccccc3)cc2)cc1)C(=O)O; Bip(4'-NH) = O=C([C@H](Cc1ccc(-c2ccc(N[*:3])cc2)cc1)N[*:1])[*:2]; X14 = O=C([C@H](Cc1ccc(-c2cccc(C(=O)[*:3])c2)cc1)N[*:1])[*:2]; Bip(4'-COOH) = N[C@@H](Cc1ccc(-c2ccc(C(=O)O)cc2)cc1)C(=O)O; Bip(4'-NHAc) = CC(=O)Nc1ccc(-c2ccc(C[C@H](N)C(=O)O)cc2)cc1; Ala(morpholin-4-yl) = N[C@@H](CN1CCOCC1)C(=O)O; Benzoyl(3-OCH2COOH) = O=C(O)COc1cccc(C(=O)*)c1; Phe(3-CONH2) = NC(=O)c1cccc(C[C@H](N)C(=O)O)c1; Benzoyl(4-Ph) = O=C(c1ccc(-c2ccccc2)cc1)*; Bip = N[C@@H](Cc1ccc(-c2ccccc2)cc1)C(=O)O; Ala(4-THP) = N[C@@H](CC1CCOCC1)C(=O)O; X15 = O=C(O)c1cccc(Oc2ccccc2N*)c1; Cya = N[C@@H](CS(=O)(=O)O)C(=O)O; 2Thi = N[C@@H](Cc1cccs1)C(=O)O; Cha = N[C@@H](CC1CCCCC1)C(=O)O; Chg = N[C@H](C(=O)O)C1CCCCC1; Tle = CC(C)(C)[C@H](N)C(=O)O; ξV = CC(C)C(N)C(=O)O; Sar = CNCC(=O)O

Each molecule was assayed against TNFα (Homo sapiens, UniProt P01375) (assay: TNF-Induced HEK-Blue Assay). Conditions: not given.
Format: cell-based

Chain of TNFα (P01375 77-233 limits assumed): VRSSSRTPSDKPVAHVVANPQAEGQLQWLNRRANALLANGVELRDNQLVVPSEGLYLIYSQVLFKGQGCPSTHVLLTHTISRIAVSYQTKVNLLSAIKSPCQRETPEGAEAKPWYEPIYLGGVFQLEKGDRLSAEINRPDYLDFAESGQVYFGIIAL

Compound	IC50 [nM]
CC[C@H](C)[C@@H]1NC(=O)[C@@H](CCCNC(=N)N)NC(=O)[C@H](CC(=O)O)NC(=O)[C@H](Cc2cnc[nH]2)NC(=O)CN(C)C(=O)[C@H](Cc2ccc(-c3ccc(NC(=O)c4ccccc4)cc3)cc2)NC(=O)[C@H](Cc2ccc(-c3ccccc3)cc2)NC(=O)[C@H](CC2CCCCC2)NC(=O)CSC[C@@H](C(=O)NCC(N)=O)NC(=O)[C@H](CC(C)C)NC(=O)[C@H](Cc2cnc[nH]2)NC(=O)[C@H](C(C)C)NC(=O)[C@@H]2CCCN2C1=O [Example 315] ({CH2CO}-[Cha][Bip][Bip(4'-NHBz)][Sar]HD[dR]IPVHLCG-NH2; thioether N-13)	< 50

Same assay, conditions: HEK-Blue-CD40L cells, NF-kB-driven secreted alkaline phosphatase reporter; TNFα 0.5 ng/ml; 18 h; read-out: TNF induced HEK-Blue assay IC50 value

Compound	IC50 [nM]
CC[C@H](C)[C@@H]1NC(=O)[C@@H]2CCCN2C(=O)[C@H]([C@@H](C)CC)NC(=O)[C@@H](CCCNC(=N)N)NC(=O)[C@H](CC(=O)O)NC(=O)[C@@H]2CCCN2C(=O)CN(C)C(=O)[C@H](Cc2ccc(-c3ccc(NC(C)=O)cc3)cc2)NC(=O)[C@H](Cc2ccc(-c3ccc(C(=O)O)cc3)cc2)NC(=O)[C@H](C(C)(C)C)NC(=O)CSC[C@@H](C(=O)NCC(N)=O)NC(=O)[C@H](CC(C)C)NC(=O)[C@H](Cc2ccc(O)cc2)NC1=O [Example 300] ({CH2CO}-[Tle][Bip(4'-COOH)][Bip(4'-NHAc)][Sar]PD[dR]IPIYLCG-NH2; thioether N-13)	50 to 200
CC(=O)Nc1ccc(-c2ccc(C[C@@H]3NC(=O)[C@H](Cc4ccc(-c5ccccc5)cc4)NC(=O)[C@H](CC4CCCCC4)NC(=O)CSC[C@@H](C(=O)NCC(N)=O)NC(=O)[C@H](CC(C)C)NC(=O)[C@H](Cc4cnc[nH]4)NC(=O)[C@H](C4CCCCC4)NC(=O)[C@@H]4CCCN4C(=O)[C@H](CC(N)=O)NC(=O)[C@@H](CCCNC(=N)N)NC(=O)[C@H](CC(=O)O)NC(=O)[C@H](Cc4cnc[nH]4)NC(=O)CN(C)C3=O)cc2)cc1 [Example 301] ({CH2CO}-[Cha][Bip][Bip(4'-NHAc)][Sar]HD[dR]NP[Chg]HLCG-NH2; thioether N-13)	50 to 200
CC(C)C[C@@H]1NC(=O)[C@H](CCCNC(=N)N)NC(=O)C(C(C)C)NC(=O)[C@@H]2CCCN2C(=O)[C@H](C(C)C)NC(=O)[C@@H](CCCNC(=N)N)NC(=O)[C@H](CC(=O)O)NC(=O)[C@@H]2CCCN2C(=O)CN(C)C(=O)[C@H](Cc2ccc(-c3cccc(C(=O)NCc4ccc(C(=O)O)cc4)c3)cc2)NC(=O)[C@H](Cc2ccc(-c3ccccc3)cc2)NC(=O)[C@H](CC2CCOCC2)NC(=O)CSC[C@@H](C(=O)NCC(N)=O)NC1=O (stereo partly drawn) [Example 303] ({CH2CO}-[Ala(4-THP)][Bip][X2][Sar]PD[dR]VP[ξV]RLCG-NH2; thioether N-13)	200 to 2000
CC(C)C[C@@H]1NC(=O)[C@H](CCCNC(=N)N)NC(=O)[C@H](C(C)C)NC(=O)[C@@H]2CCCN2C(=O)[C@H](C(C)C)NC(=O)[C@@H](CCCNC(=N)N)NC(=O)[C@H](CC(=O)O)NC(=O)[C@@H]2CCCN2C(=O)CN(C)C(=O)[C@H](Cc2ccc(-c3ccc(NC(=O)c4nn(C)c5ccccc45)cc3)cc2)NC(=O)[C@H](Cc2ccc(-c3ccccc3)cc2)NC(=O)[C@H](CC2CCOCC2)NC(=O)CSC[C@@H](C(=O)NCC(N)=O)NC1=O [Example 304] ({CH2CO}-[Ala(4-THP)][Bip][X5][Sar]PD[dR]VPVRLCG-NH2; thioether N-13)	< 50
CC[C@H](C)[C@@H]1NC(=O)[C@@H](CCCNC(=N)N)NC(=O)[C@H](CC(=O)O)NC(=O)[C@H](Cc2cnc[nH]2)NC(=O)CN(C)C(=O)[C@H](Cc2ccc(-c3ccc(NC(=O)c4cccc(C(=O)O)c4)cc3)cc2)NC(=O)[C@H](Cc2ccc(-c3ccccc3)cc2)NC(=O)[C@H](CC2CCCCC2)NC(=O)CSC[C@@H](C(=O)NCC(N)=O)NC(=O)[C@H](CC(C)C)NC(=O)[C@H](Cc2cnc[nH]2)NC(=O)[C@H](C(C)C)NC(=O)[C@@H]2CCCN2C1=O [Example 305] ({CH2CO}-[Cha][Bip][Bip(4'-(3-HOOC-benzamido))][Sar]HD[dR]IPVHLCG-NH2; thioether N-13)	< 50
CC(C)C[C@@H]1NC(=O)[C@H](CCCNC(=N)N)NC(=O)[C@H](C(C)C)NC(=O)[C@@H]2CCCN2C(=O)[C@H](C(C)C)NC(=O)[C@@H](CCCNC(=N)N)NC(=O)[C@H](CC(=O)O)NC(=O)[C@@H]2CCCN2C(=O)CN(C)C(=O)[C@H](Cc2ccc(-c3cccc(C(=O)Nc4ccccc4Oc4cccc(C(=O)O)c4)c3)cc2)NC(=O)[C@H](Cc2ccc(-c3ccccc3)cc2)NC(=O)[C@H](CN2CCOCC2)NC(=O)CSC[C@@H](C(=O)NCC(N)=O)NC1=O [Example 306] ({CH2CO}-[Ala(morpholin-4-yl)][Bip][X14](X15)[Sar]PD[dR]VPVRLCG-NH2; thioether N-13)	50 to 200
CC[C@H](C)[C@@H]1NC(=O)[C@@H](CCCNC(=N)N)NC(=O)[C@H](CC(=O)O)NC(=O)[C@H](Cc2cnc[nH]2)NC(=O)CN(C)C(=O)[C@H](Cc2ccc(-c3ccc(NC(=O)c4ccc(-c5ccccc5)cc4)cc3)cc2)NC(=O)[C@H](Cc2ccc(-c3ccccc3)cc2)NC(=O)[C@H](CC2CCCCC2)NC(=O)CSC[C@@H](C(=O)NCC(N)=O)NC(=O)[C@H](CC(C)C)NC(=O)[C@H](Cc2cnc[nH]2)NC(=O)[C@H](C(C)C)NC(=O)[C@@H]2CCCN2C1=O [Example 307] ({CH2CO}-[Cha][Bip][Bip(4'-NH)](Benzoyl(4-Ph))[Sar]HD[dR]IPVHLCG-NH2; thioether N-13)	50 to 200
CC[C@H](C)[C@@H]1NC(=O)[C@@H](CCCNC(=N)N)NC(=O)[C@H](CC(=O)O)NC(=O)[C@H](Cc2cnc[nH]2)NC(=O)CN(C)C(=O)[C@H](Cc2ccc(-c3ccc(NC(=O)c4cccc(OCC(=O)O)c4)cc3)cc2)NC(=O)[C@H](Cc2ccc(-c3ccccc3)cc2)NC(=O)[C@H](CC2CCCCC2)NC(=O)CSC[C@@H](C(=O)NCC(N)=O)NC(=O)[C@H](CC(C)C)NC(=O)[C@H](Cc2cnc[nH]2)NC(=O)[C@H](C(C)C)NC(=O)[C@@H]2CCCN2C1=O [Example 308] ({CH2CO}-[Cha][Bip][Bip(4'-NH)](Benzoyl(3-OCH2COOH))[Sar]HD[dR]IPVHLCG-NH2; thioether N-13)	< 50
CC(=O)Nc1ccc(-c2ccc(C[C@@H]3NC(=O)[C@H](Cc4ccc(-c5ccccc5)cc4)NC(=O)[C@H](CC4CCCCC4)NC(=O)CSC[C@@H](C(=O)NCC(N)=O)NC(=O)[C@H](CC(C)C)NC(=O)[C@H](Cc4ccc(O)cc4)NC(=O)[C@H](C(C)C)NC(=O)[C@@H]4CCCN4C(=O)[C@H](C(C)C)NC(=O)[C@@H](CCCNC(=N)N)NC(=O)[C@H](CS(=O)(=O)O)NC(=O)[C@@H]4CCCN4C(=O)CN(C)C3=O)cc2)cc1 [Example 309] ({CH2CO}-[Cha][Bip][Bip(4'-NHAc)][Sar]P[Cya][dR]VPVYLCG-NH2; thioether N-13)	50 to 200
CC(=O)Nc1ccc(-c2ccc(C[C@@H]3NC(=O)[C@H](Cc4ccc(-c5ccccc5)cc4)NC(=O)[C@H](CC4CCCCC4)NC(=O)CSC[C@@H](C(=O)NCC(N)=O)NC(=O)[C@H](CC(C)C)NC(=O)[C@H](Cc4ccc(O)cc4)NC(=O)[C@H](C4CCCCC4)NC(=O)[C@@H]4CCCN4C(=O)[C@H](C(C)C)NC(=O)[C@@H](CCCNC(=N)N)NC(=O)[C@H](CC(=O)O)NC(=O)[C@@H]4CCCN4C(=O)CN(C)C3=O)cc2)cc1 [Example 310] ({CH2CO}-[Cha][Bip][Bip(4'-NHAc)][Sar]PD[dR]VP[Chg]YLCG-NH2; thioether N-13)	50 to 200
CC(=O)Nc1ccc(-c2ccc(C[C@@H]3NC(=O)[C@H](Cc4ccc(-c5ccccc5)cc4)NC(=O)[C@H](CN4CCOCC4)NC(=O)CSC[C@@H](C(=O)NCC(N)=O)NC(=O)[C@H](CC(C)C)NC(=O)[C@H](Cc4cccc(C(N)=O)c4)NC(=O)[C@H](C(C)C)NC(=O)[C@@H]4CCCN4C(=O)[C@H](C(C)C)NC(=O)[C@@H](CCCNC(=N)N)NC(=O)[C@H](CC(=O)O)NC(=O)[C@@H]4CCCN4C(=O)CN(C)C3=O)cc2)cc1 [Example 311] ({CH2CO}-[Ala(morpholin-4-yl)][Bip][Bip(4'-NHAc)][Sar]PD[dR]VPV[Phe(3-CONH2)]LCG-NH2; thioether N-13)	50 to 200
CC(=O)Nc1ccc(-c2ccc(C[C@@H]3NC(=O)[C@H](Cc4ccc(-c5ccccc5)cc4)NC(=O)[C@H](CN4CCOCC4)NC(=O)CSC[C@@H](C(=O)NCC(N)=O)NC(=O)[C@H](CC(C)C)NC(=O)[C@H](Cc4cccc(C(N)=O)c4)NC(=O)[C@H](C4CCCCC4)NC(=O)[C@@H]4CCCN4C(=O)[C@H](C(C)C)NC(=O)[C@@H](CCCNC(=N)N)NC(=O)[C@H](CC(=O)O)NC(=O)[C@@H]4CCCN4C(=O)CN(C)C3=O)cc2)cc1 [Example 312] ({CH2CO}-[Ala(morpholin-4-yl)][Bip][Bip(4'-NHAc)][Sar]PD[dR]VP[Chg][Phe(3-CONH2)]LCG-NH2; thioether N-13)	200 to 2000
CC(=O)Nc1ccc(-c2ccc(C[C@@H]3NC(=O)[C@H](Cc4ccc(-c5ccc(C(=O)O)cc5)cc4)NC(=O)[C@H](CN4CCOCC4)NC(=O)CSC[C@@H](C(=O)NCC(N)=O)NC(=O)[C@H](CC(C)C)NC(=O)[C@H](Cc4cccc(C(N)=O)c4)NC(=O)[C@H](C(C)C)NC(=O)[C@@H]4CCCN4C(=O)[C@H](C(C)C)NC(=O)[C@@H](CCCNC(=N)N)NC(=O)[C@H](CC(=O)O)NC(=O)[C@@H]4CCCN4C(=O)CN(C)C3=O)cc2)cc1 [Example 313] ({CH2CO}-[Ala(morpholin-4-yl)][Bip(4'-COOH)][Bip(4'-NHAc)][Sar]PD[dR]VPV[Phe(3-CONH2)]LCG-NH2; thioether N-13)	200 to 2000
CC(=O)Nc1ccc(-c2ccc(C[C@@H]3NC(=O)[C@H](Cc4ccc(-c5ccc(C(=O)O)cc5)cc4)NC(=O)[C@H](CN4CCOCC4)NC(=O)CSC[C@@H](C(=O)NCC(N)=O)NC(=O)[C@H](CC(C)C)NC(=O)[C@H](Cc4cccs4)NC(=O)[C@H](C4CCCCC4)NC(=O)[C@@H]4CCCN4C(=O)[C@H](C(C)C)NC(=O)[C@@H](CCCNC(=N)N)NC(=O)[C@H](CC(=O)O)NC(=O)[C@@H]4CCCN4C(=O)CN(C)C3=O)cc2)cc1 [Example 314] ({CH2CO}-[Ala(morpholin-4-yl)][Bip(4'-COOH)][Bip(4'-NHAc)][Sar]PD[dR]VP[Chg][2Thi]LCG-NH2; thioether N-13)	200 to 2000
